Measurements taken from patent US9586921B2, “Burdock fruit extract containing arctigenin at high content and process for producing same” (Kracie Pharma, Ltd., priority 2009, dated 2017).

What was measured:
CAPAN-1 Xenografts = test: Evaluation of the anticancer activity in the model animal of tumor (CAPAN-1 Xenografts); format: in vivo, nude mouse; conditions: CAPAN-1 xenograft, 50 μg per mouse by mouth five times a week, one month after beginning of dosage, FIG. 5
Method: (§1) [Test 3] (the Evaluation of the Anticancer Activity in the Model Animal of Tumor) (Method for Test) The subcutaneous dorsales of nude mouse (BALB-cAJ nu/nu; Nippon Kurea) which is the donor was inoculated the human pancreas cancer cell line, CAPAN-1 or PSN-1, and the obtained tumor mass of the donor mouse was transplanted into the subcutaneous dorsales of the recipient mouse to generate the model animal of tumor. […] The anticancer activity was evaluated by measuring the size of the tumor mass of subcutaneous dorsales sequentially.

PSN-1 Xenografts = test: Evaluation of the anticancer activity in the model animal of tumor (PSN-1 Xenografts); format: in vivo, nude mouse; conditions: PSN-1 xenograft, 50 μg per mouse by mouth five times a week, one month after beginning of dosage, FIG. 6
Method: as §1

[1] = test system: pancreas cancer cell line PANC-1; conditions: PANC-1, undernutrition condition; non-patent document 1; cited from earlier work
CAPAN-1 = test: Cytotoxic evaluation using the cultured cell (WST-8 viability), CAPAN-1; format: cell-based, human; conditions: CAPAN-1, DMEM (normal nutritional condition) and NDM (nutrient starvation)
Method: (§2) [Test 2] (Cytotoxic Evaluation Using the Cultured Cell)
(§3) The pancreas cancer cell line, CAPAN-1, PANC-1 and PSN-1 were plated to the 96 well plate, and they were pre-cultured in DMEM culture media in 37° C., 5% CO2 and 95% Air under normal nutritional condition for 24 hours. After washing these cells with PBS, the extracts which were extracted by the different methods in DMEM culture media (ending D in the graph) which is normal nutritional condition and in NDM culture media (ending I in the graph) which are a nutrient starvation condition (Example 2 and comparative example 2 in the graph) were added to each well including constant concentration of arctigenin, and incubated for 24 hours. The cells were washed in PBS again, 100 μL of DMEM culture media including 10% WST-8 was added to be reacted for two hours and measured the absorbance of 450 nm by the microplate reader, and viability of these cells were evaluated.

PANC-1 = test: Cytotoxic evaluation using the cultured cell (WST-8 viability), PANC-1; format: cell-based; conditions: PANC-1, DMEM (normal nutritional condition) and NDM (nutrient starvation)
Method: as §2, §3

PSN-1 = test: Cytotoxic evaluation using the cultured cell (WST-8 viability), PSN-1; format: cell-based, human; conditions: PSN-1, DMEM (normal nutritional condition) and NDM (nutrient starvation)
Method: as §2, §3

| SMILES | antitumor effect (size of the tumor mass) (CAPAN-1 Xenografts) | antitumor effect (size of the tumor mass) (PSN-1 Xenografts) | effect in screen for release of viability of tumor cells in the undernutrition condition [1] | anticancer activity (CAPAN-1) | anticancer activity (PANC-1) | anticancer activity (PSN-1) |
| --- | --- | --- | --- | --- | --- | --- |
| COc1cc(C[C@H]2C(=O)OC[C@@H]2Cc2ccc(OC)c(OC)c2)ccc1O [arctigenin] | antitumor effect was also obtained | antitumor effect was also obtained | effective | – | – | – |
| COc1ccc(C[C@H]2COC(=O)[C@@H]2Cc2ccc(O[C@@H]3O[C@H](CO)[C@@H](O)[C@H](O)[C@H]3O)c(OC)c2)cc1OC [arctiin] | – | – | – | in neither condition | in neither condition | in neither condition |
